Experimental data: publication PMC9698340, “Discovery and SAR Study of Quinoxaline–Arylfuran Derivatives as a New Class of Antitumor Agents” (Pharmaceutics, 2022)

What was measured:
[1] = test system: HCT116 cells; assay: CCK-8 antiproliferation assay, HCT116; format: cell-based; settings: Homo sapiens, HCT-116, 48 h
Experimental: (§1) Human lung carcinoma cell lines A549, human cervical cancer cell lines HeLa, human prostate cancer cell lines PC3, human colorectal carcinoma cell lines HCT116, and human liver cells L02 were purchased from the Chinese Academy of Sciences Shanghai Cell Bank (Shanghai, China). HeLa, A549, PC3, HCT116, and L02 cells were cultured in DMEM Dulbecco’s Modified Eagle Medium (DMEM; Gibco Inc., Gaithersburg, MD, USA). All cultures were provided with 10% fetal bovine serum (FBS; YHSM, Beijing, China), 100 IU/mL penicillin, and 100 μg/mL streptomycin, and cells were incubated at 37 °C in an atmosphere of 5% CO2.
(§2) Cell viability was determined using a CCK-8 kit (Apexbio, Houston, TX, USA). […] Subsequently, absorbance was assessed at 450 nm. Three duplicates were set in each group.
(§3) All synthesized quinoxalines compounds were tested for in vitro cytotoxicity against four cancer cell lines (HeLa, PC3, A549, and HCT116). The inhibitory effects of these compounds were evaluated using the CCK-8 assay after treatment with 20 μM of each compound. […] The species of phenyl substituents have a significant effect on the activity. […] By comparison, hydrophobic substitution at the phenyl ring gave derivatives with relatively low potency (QW7–8). In addition, large substituents on the phenyl ring exerted an unfavorable influence on the potency of the compounds (QW8 and QW16).

[2] = test system: A549 cells; assay: CCK-8 antiproliferation assay, A549; format: cell-based; settings: Homo sapiens, 48 h
Experimental: as §1, §2, §3

[3] = test system: HeLa cells; assay: Cell cycle analysis, PI flow cytometry; format: cell-based, human; settings: 24 h
Experimental: For cell cycle analysis, cells were collected after treatment, washed twice with cold PBS, fixed in 70% ethanol overnight, and stained with PI ([…], Sigma, Shanghai, China), plus 0.2 mg/mL of DNase-free RNase A (Qiagen) for 1 h at 4 °C.

[4] = test system: STAT3 phosphorylation (Y705) in HeLa cells; assay: Western blot of STAT3 Y705 phosphorylation; format: cell-based, human; settings: 12 h
Experimental: HeLa cells were seeded in a 6-well plate overnight and treated with QW12 for 24 h. The cells were then harvested and washed with cold PBS and lysed with RIPA buffer supplemented with a protease and phosphatase inhibitor cocktail. Protein concentration was measured using a BCA protein assay kit (Boster Biological Technology Co., Ltd., Wuhan, China). Proteins were separated by 10% SDS-PAGE gel and transferred onto polyvinylidene difluoride (PVDF) membranes (Millipore Co., Billerica, MA, USA). After blocking with 5% mild in PBST for 1 h at room temperature, membranes were incubated with specific primary antibodies against STAT3 (#ET1605-45), Bcl-2 (#ET1603-11), Bax (#ET1603-34), or GAPDH (#HA721136) overnight at 4 °C. The above antibodies were purchased from HUABIO, China. Phospho-STAT3 (Tyr 705) (#9145S) and anti-rabbit IgG, HRP-linked antibody (#7074S) were purchased from Cell Signaling Technology, Inc. America. […]
The activation of STAT3 is tightly regulated during various physiological processes, and the aberrant and persistent activation of STAT3 has been found in various types of cancer. […] Western blot analysis determined whether QW12 could also regulate the STAT3 signaling pathway in HeLa cells. HeLa cells were treated with QW12 for 12 h, and total cell lysates were prepared; Y705-phosphorylated STAT3 proteins were detected using a specific antibody.

[5] = test system: Bcl-2 and Bax in HeLa cells; assay: Western blot of Bcl-2 and Bax; format: cell-based, human; settings: 24 h
Experimental: HeLa cells were seeded in a 6-well plate overnight and treated with QW12 for 24 h. The cells were then harvested and washed with cold PBS and lysed with RIPA buffer supplemented with a protease and phosphatase inhibitor cocktail. Protein concentration was measured using a BCA protein assay kit (Boster Biological Technology Co., Ltd., Wuhan, China). Proteins were separated by 10% SDS-PAGE gel and transferred onto polyvinylidene difluoride (PVDF) membranes (Millipore Co., Billerica, MA, USA). After blocking with 5% mild in PBST for 1 h at room temperature, membranes were incubated with specific primary antibodies against STAT3 (#ET1605-45), Bcl-2 (#ET1603-11), Bax (#ET1603-34), or GAPDH (#HA721136) overnight at 4 °C. The above antibodies were purchased from HUABIO, China. Phospho-STAT3 (Tyr 705) (#9145S) and anti-rabbit IgG, HRP-linked antibody (#7074S) were purchased from Cell Signaling Technology, Inc. America. The next day, the membranes were washed with PBST three times and incubated with secondary antibodies 2 h at room temperature. Images were captured and documented with a CCD system (Tanon 5200, Biotanon, Shanghai, China).

[6] = test system: HeLa cells; assay: Intracellular ROS, DCFH-DA flow cytometry; format: cell-based, human; settings: 10 and 40 μM, 6 h
Experimental: Intracellular reactive oxygen species (ROS) were measured by 2,7-dichlorofluorescein diacetate (DCFH-DA) staining. HeLa cells were treated with QW12 at 10 μM and 40 μM for 6 h. After indicated treatment, cells were harvested and washed with PBS. Cells were incubated with 10 μM DCFH-DA at 37 °C for 30 min. Cells were washed twice, resuspended with PBS, and subjected to flow cytometry.

[7] = test system: HeLa cells; assay: Wound healing assay; format: cell-based, human; settings: after 48 h, control 55.7%
Experimental: A total of 1 × 10^6 cells/well in the logarithmic growth phase were seeded in 6-well plates. When cell density reached 80 to 90%, a scratch was made in the monolayer in the middle of the well with a 200 μL pipette tip. The tip was kept perpendicular to the bottom of the well to obtain a straight gap. The detached cells were washed away and removed. The healing of the wound within the same scraped line was then observed and photographed at the indicated time points (0 h, 24 h, 48 h). Each experiment was repeated three times.

[8] = test system: phosphorylated AKT (T308) in HeLa cells; assay: Western blot of AKT (T308) phosphorylation; format: cell-based, human; settings: total AKT not affected, reversed by NAC
[9] = HeLa cells, 10, 40 μM, vs control

COc1cc(-c2ccc(/C=N/NC(=O)c3ccc(O)cc3)o2)c(OC)cc1-c1ccc2nccnc2c1 [QW12, (E)-N’-((5-(2,5-dimethoxy-4-(quinoxalin-6-yl)phenyl)furan-2-yl)methylene)-4-hydroxybenzohydrazide]
inhibition at 20 µM ([1]; 20 μM, CCK-8, mean ± SD, read-out: Inhibition Rate (%) at 20 μM, HCT116): 65.43 ± 0.27% | IC50 ([1]; CCK-8, read-out: IC50 ± SD, HCT116): 12.2 ± 0.25 µM | inhibition at 20 µM ([2]; 20 μM, CCK-8, mean ± SD, read-out: Inhibition Rate (%) at 20 μM, A549): 50.8 ± 0.62% | IC50 ([2]; CCK-8, read-out: IC50 ± SD, A549): 20.6 ± 1.22 µM | HeLa cell population in the S phase ([3]; 10 μM): 23.19% | HeLa cell population in the S phase ([3]; 40 μM): 51.88% | percentage of cells in phases G0/G1 and G2/M ([3]; 10 and 40 μM): decreased significantly | effect on STAT3 Tyr705 phosphorylation [4]: inhibited Tyr705 phosphorylation in a dose-dependent manner | effect on total STAT3 level [4]: also decreased | Bcl-2/Bax expression ratio ([5]; 40 μM, control 1.00): 0.66 ± 0.01 | Bax expression [5, 9]: increased slightly | Bcl-2 expression [5, 9]: decreased significantly | effect on ROS accumulation [6]: stimulates ROS accumulation in a dose-dependent manner | rate of scratch closure ([7]; 10 μM): 28.0% | rate of scratch closure ([7]; 40 μM): 17.2% | effect on phosphorylated AKT levels (T308) [8]: significantly decreased
